Test results taken from patent publication US20230287044A1, “NOVEL ANTIBACTERIAL PEPTIDE AND USE THEREOF” (priority 2020, published 2023).
Values after ≈ are worked out from the molar mass of the structure shown. Like-named read-outs stand apart in the source and are kept apart here. Square brackets hold non-standard residues; d marks the D form. Peptide text beside a SMILES is read from it.

What was measured:
[1] = Solubility of antibacterial peptides in solution; format: physicochemical
[2] = tested on: MRPA (P. aeruginosa) CCARM 2180; format: cell-based, Pseudomonas aeruginosa; details: CCARM 2180, 18 h
Summary of the method: (§1)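 Mid-log cultures grown in CAMHB and diluted to 1× 10^6 cfu/ml in PBS were mixed with an equal volume of peptide in CAMHB (80 µM to 0.63 µM twofold dilutions). MIC taken as the mean of three independent experiments.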

[3] = tested on: MRAB (A. baumannii) ATCC BAA 1605; format: cell-based, Acinetobacter baumannii
Summary of the method: as §1

[4] = tested on: MRSA (S. aureus) KCCM 40510; format: cell-based, Staphylococcus aureus; details: KCCM 40510, 18 h
Summary of the method: as §1

[5] = tested on: VRE (E. faecalis) ATCC 51575; format: cell-based, Enterococcus faecalis; details: ATCC 51575, 18 h
Summary of the method: as §1

[6] = tested on: 30 species of Acinetobacter baumannii (A. baumannii); format: cell-based; details: against 30 species of Acinetobacter baumannii
Description: In addition, the results obtained by measuring the minimum inhibitory concentrations of KSH29, KSH42 and KSH43 against 30 species of Acinetobacter baumannii (A. baumannii) are shown in Table 4 below.
The minimum inhibitory concentrations (MIC) against the 30 species of Acinetobacter baumannii were measured in the following manner.
The strain 1605 was purchased from ATCC (American Type Culture Collection, USA). In addition, the strain 40203 was purchased from the Korean Culture Center of Microorganisms.
The COL^R refers to resistance to colistin, the TGC^R refers to resistance to tigecycline, and the TGC^I refers to tigecycline intermediate strains.

E. coli = experiment: In vivo antibacterial activity in mice (survival rate after E. coli infection); design: species or system mice (BALB/c); details: E. coli 1 × 10^6 cfu/mouse subcutaneous; 100 mg/kg after 1, 24 and 48 hours; observed 7 days
Description: The results obtained by analyzing the antibacterial activity against bacteria (E. coli) according to treatment with KSH43 as a survival rate of mice (BALB/c, female. 7-weeks) are shown in FIG. 216.
Specifically, the strains were grown in CAMHB until the log phase, and then washed with PBS buffer, and infected by subcutaneous injection into mice to 1 × 10^6 cfu/mouse. After 1 hour, 24 hours, and 48 hours, KSH43 and PBS (negative control) were administered at a dose of 100 mg/kg. Thereafter, the survival rate of the mice was checked every 12 hours for 7 days and compared to measure the in vivo antibacterial activity.

| MIC MRAB (A. baumannii) ATCC BAA 1605 ([3]; ATCC BAA 1605, 18 h) | SMILES | solubility at 12 h ([1]; aqueous buffer) | solubility at 12 h ([1]; plasma or biological fluid) | solubility at 12 h ([1]; water) | MIC MRPA (P. aeruginosa) CCARM 2180 [2] | MIC MRSA (S. aureus) KCCM 40510 [4] | MIC VRE (E. faecalis) ATCC 51575 [5] | MIC MRAB (A. baumannii) ATCC BAA 1605 ([3]; CAMHB, 37° C., 18 hours, average of three experiments) | MIC50 [6] | MIC90 [6] | survival rate of mice (E. coli) |
| --- | --- | --- | --- | --- | --- | --- | --- | --- | --- | --- | --- |
| 1.25 µM (≈ 1.52 µg/mL) | CC[C@@H](C)[C@@H](NC(=O)[C@@H](Cc1c[nH]c2ccccc12)NC(=O)[C@H](NC(=O)[C@@H](CC(C)C)NC(=O)[C@H](N)Cc1c[nH]c2ccccc12)C(C)C)C(=O)N[C@H](Cc1c[nH]c2ccccc12)C(=O)N[C@H](CCCNC(=N)N)C(=O)N[C@H](CCCNC(=N)N)C(N)=O [KSH32, wlvwiwrr] (H-[dW][dL][dV][dW][dI][dW][dR][dR]-NH2; N-terminus assumed) | 25 µM (≈ 30.3 µg/mL) | 50 µM (≈ 60.7 µg/mL) | > 2000 µM | >5 µM | 1.25 µM (≈ 1.52 µg/mL) | 1.25 µM (≈ 1.52 µg/mL) |  |  |  |  |
|  | CC[C@@H](C)[C@@H](NC(=O)[C@@H](Cc1c[nH]c2ccccc12)NC(=O)[C@@H](CCCNC(=N)N)NC(=O)[C@@H](CCCNC(=N)N)NC(=O)[C@H](N)CCCNC(=N)N)C(=O)N[C@H](Cc1c[nH]c2ccccc12)C(=O)N[C@@H](C(=O)N[C@H](CC(C)C)C(=O)N[C@H](Cc1c[nH]c2ccccc12)C(=O)N[C@H](CCCCN)C(N)=O)C(C)C [KSH43, rrrwiwvlwk] (H-[dR][dR][dR][dW][dI][dW][dV][dL][dW][dK]-NH2; N-terminus assumed) | > 200 µM | > 25 µM | > 2000 µM | 1.25 µM (≈ 1.87 µg/mL) | 0.63 µM (≈ 0.944 µg/mL) | 0.63 µM (≈ 0.944 µg/mL) | 0.63 µM (≈ 0.944 µg/mL) | 0.63 µM (≈ 0.944 µg/mL) | 1.25 µM (≈ 1.87 µg/mL) | all mice administered with KSH43 survived for 7 days |
